Test results as given in US4507297A, “Piperazine derivatives and a medicine containing the same” (priority 1981, dated 1985).
Counter-ions that a name gives are not always drawn. Like-named read-outs stand apart in the source and are kept apart here.

How the values were obtained:
mice = experiment: in vivo; details: i.v., tail of mice
Protocol: (§1) Medicinal substances were administered intravenously from the tails of the mice.

[1] = system: experimental myocardial infarction; experiment: Effects against an experimental myocardial infarction (anterior descending artery ligation, necrotic area by planimetry); format: in vivo, rabbit; details: for inhibition in vivo at 200 mg/kg: read-out: Inhibition rates (%), T = 200 mg/kg, i.v.
Protocol: The chest wall of each animal was incised under artificial respiration, and the anterior descending artery was ligated (about 7 mm downward of the starting portion). 24 Hours later, the heart was taken out, and a myocardium between the cadiac apex and the ligated portion was sliced to have a thickness of 2 mm and stained to distinguish the infarction-affected portions by a phosphorylase reaction, whereupon the area of the necrotic portion was calculated by planimetory. Medicinal substances were administered 5 minutes prior to the ligation (T/2 mg/kg, i.v.), continuously from immediately after the ligation to one hour later (T/4 mg/kg/hr, by constant dropping), 2 hours after the ligation (T/8 mg/kg, i.v.) and 3 hours after the ligation (T/8 mg/kg, i.v.). Each medicinal substance was administered in the form of a physiological sodium chloride solution. Where the substance was hardly soluble, it was used in the form of a salt. To a control group was administered only a physiological sodium chloride solution. (T means a total amount of administration.)

in vivo = details: mouse, in vivo, iv, tail of mice
Protocol: as §1

[2] = Oryctolagus cuniculus, iv, 24 h, vs control 14.9 ± 0.7
[3] = T = 200 mg/kg, i.v., 8 cases, control 14.9 ± 0.7
[4] = Oryctolagus cuniculus, iv, 24 h, vs control 14.1 ± 1.0
[5] = T = 200 mg/kg, i.v., 8 cases, control 14.1 ± 1.0
[6] = Oryctolagus cuniculus, iv, 24 h, T = 40 mg/kg, i.v., vs control 14.1 ± 1.0, read-out: Inhibition rates (%)
[7] = T = 40 mg/kg, i.v., 8 cases, control 14.1 ± 1.0

CC(C)C[C@H](NC(=O)[C@@H]1O[C@H]1C(=O)[O-])C(=O)N1CCN(c2ncccn2)CC1.[Na+] [listing 1 of 2 here]
MLD (in column LD50 mice) (mice): > 1125 mg/kg | inhibition in vivo at 200 mg/kg [1, 2]: 25.5% | Necrotic area (mean ± S.E. %) [1, 3]: 11.1 ± 0.8%

COc1ccc(CN2CCN(C(=O)[C@H](CC(C)C)NC(=O)[C@@H]3O[C@H]3C(=O)[O-])CC2)c(OC)c1OC.[Na+] [listing 1 of 2 here]
inhibition in vivo at 200 mg/kg [1, 4]: 30.5% | Necrotic area (mean ± S.E. %) [1, 5]: 9.8 ± 0.9%

CC(C)NCC(O)COc1cccc2ccccc12 (stereo not drawn) [Propranolol hydrochloride, reference compound]
inhibition in vivo at 1 mg/kg ([1]; Oryctolagus cuniculus, iv, 24 h, T = 1 mg/kg, i.v., vs control 14.6 ± 1.0, read-out: Inhibition rates (%)): 6.2% | inhibition in vivo at 2 mg/kg ([1]; Oryctolagus cuniculus, iv, 24 h, T = 2 mg/kg, i.v., vs control 14.6 ± 1.0, read-out: Inhibition rates (%)): 23.3% | inhibition in vivo at 4 mg/kg ([1]; Oryctolagus cuniculus, iv, 24 h, T = 4 mg/kg, i.v., vs control 14.6 ± 1.0, read-out: Inhibition rates (%)): 26.7% | Necrotic area (mean ± S.E. %) ([1]; T = 1 mg/kg, i.v., 8 cases, control 14.6 ± 1.0): 13.7 ± 1.1%

CC(C)C[C@H](NC(=O)[C@@H]1O[C@H]1C(=O)[O-])C(=O)N1CCN(CC=Cc2ccccc2)CC1.[Na+]
MLD (in column LD50 mice) (mice): 1000 to 1125 mg/kg | inhibition in vivo at 100 mg/kg ([1]; Oryctolagus cuniculus, iv, 24 h, read-out: Inhibition rates (%), T = 100 mg/kg, i.v., vs control 14.9 ± 0.7): 25.5% | Necrotic area (mean ± S.E. %) ([1]; T = 100 mg/kg, i.v., 8 cases, control 14.9 ± 0.7): 11.1 ± 0.6%

COc1ccc(CN2CCN(C(=O)[C@H](CC(C)C)NC(=O)[C@@H]3O[C@H]3C(=O)[O-])CC2)cc1.[Na+]
MLD (in column LD50 mice) (mice): > 1125 mg/kg | inhibition in vivo at 200 mg/kg [1, 2]: 20.1% | Necrotic area (mean ± S.E. %) [1, 3]: 11.9 ± 0.8%

CC(C)C[C@H](NC(=O)[C@@H]1O[C@H]1C(=O)[O-])C(=O)N1CCN(c2ncccn2)CC1.[Na+] [listing 2 of 2 here]
inhibition in vivo at 200 mg/kg [1, 4]: 23% | Necrotic area (mean ± S.E. %) [1, 5]: 11.1 ± 0.7%

CC(C)C[C@H](NC(=O)C1OC1C(=O)O)C(=O)N1CCN(C(c2ccccc2)c2ccccc2)CC1 (stereo partly drawn) [Compound 1]
LD50 (in vivo): 174 mg/kg | inhibition in vivo at 80 mg/kg ([1]; Oryctolagus cuniculus, iv, 24 h, T = 80 mg/kg, i.v., vs control 14.9 ± 0.7, read-out: Inhibition rates (%)): 24.8% | Necrotic area (mean ± S.E. %) ([1]; T = 80 mg/kg, i.v., 8 cases, control 14.9 ± 0.7): 11.2 ± 0.5%

COc1ccc(CCN(C)CCCC(C#N)(c2ccc(OC)c(OC)c2)C(C)C)cc1OC (racemic) [Verapanil hydrochloride, reference compound]
inhibition in vivo at 2 mg/kg ([1]; Oryctolagus cuniculus, iv, 24 h, read-out: Inhibition rates (%), T = 2 mg/kg, i.v., vs control 14.6 ± 1.0): 24.7% | Necrotic area (mean ± S.E. %) ([1]; T = 2 mg/kg, i.v., 7 cases (propranolol), 10 cases (verapanil), control 14.6 ± 1.0): 11.0 ± 1.3%

COc1ccc(CN2CCN(C(=O)[C@H](CC(C)C)NC(=O)[C@@H]3O[C@H]3C(=O)[O-])CC2)c(OC)c1OC.[Na+] [listing 2 of 2 here]
MLD (in column LD50 mice) (mice): > 1125 mg/kg | inhibition in vivo at 200 mg/kg [1, 2]: 29.5% | Necrotic area (mean ± S.E. %) [1, 3]: 10.5 ± 0.9%

CCOC(=O)[C@H]1O[C@@H]1C(=O)N[C@@H](CC(C)C)C(=O)N1CCN(Cc2ccc(OC)c(OC)c2OC)CC1 [Compound 12, Ethyl (2S,3S)-3-[(s)-3-methyl-1-{4-(2,3,4-trimethoxyphenylmethyl)piperazine-1-ylcarbonyl}butylcarbamoyl]oxirane-2-carboxylate 1/2 sulfate]
LD50 (in vivo): 345 mg/kg | inhibition in vivo at 40 mg/kg [1, 6]: 19.9% | Necrotic area (mean ± S.E. %) [1, 7]: 11.3 ± 1.2%

COc1ccc(CN2CCN(C(=O)[C@H](CC(C)C)NC(=O)[C@H]3O[C@@H]3C(=O)[O-])CC2)c(OC)c1OC.[Na+]
MLD (in column LD50 mice) (mice): > 1125 mg/kg | inhibition in vivo at 200 mg/kg [1, 4]: 24.1% | Necrotic area (mean ± S.E. %) [1, 5]: 10.7 ± 0.9%

COc1ccc(CN2CCN(C(=O)[C@H](CC(C)C)NC(=O)C3OC3C(=O)OCC(C)C)CC2)c(OC)c1OC (stereo partly drawn) [Compound 9, Isobutyl trans-3-[(s)-3-methyl-1-{4-(2,3,4-trimethoxyphenylmethyl)piperazine-1-ylcarbonyl}butylcarbamoyl]oxirane-2-carboxylate 1/2 sulfate]
LD50 (in vivo): 440 mg/kg | inhibition in vivo at 40 mg/kg [1, 6]: 18.4% | Necrotic area (mean ± S.E. %) [1, 7]: 11.5 ± 1.2%

CCN1CCN(C(=O)[C@H](CC(C)C)NC(=O)[C@@H]2O[C@H]2C(=O)[O-])CC1.[Na+]
MLD (in column LD50 mice) (mice): > 1125 mg/kg | inhibition in vivo at 200 mg/kg [1, 2]: 20.8% | Necrotic area (mean ± S.E. %) [1, 3]: 11.8 ± 0.9%

CCOC(=O)[C@@H]1O[C@H]1C(=O)N[C@@H](CC(C)C)C(=O)N1CCN(Cc2ccc(OC)c(OC)c2OC)CC1 [Compound 11, Ethyl (2R,3R)-3-[(s)-3-methyl-1-{4-(2,3,4-trimethoxyphenylmethyl)piperazine-1-ylcarbonyl}butylcarbamoyl]oxirane-2-carboxylate 1/2 sulfate]
LD50 (in vivo): 374 mg/kg | inhibition in vivo at 40 mg/kg [1, 6]: 29.1% | Necrotic area (mean ± S.E. %) [1, 7]: 10.0 ± 1.0%

CC(C)C[C@H](NC(=O)[C@@H]1O[C@H]1C(=O)[O-])C(=O)N1CCN(Cc2ccccc2)CC1.[Na+]
MLD (in column LD50 mice) (mice): > 1125 mg/kg | inhibition in vivo at 200 mg/kg [1, 2]: 20.1% | Necrotic area (mean ± S.E. %) [1, 3]: 11.9 ± 0.6%

CC(C)C[C@H](NC(=O)[C@@H]1O[C@H]1C(=O)[O-])C(=O)N1CCN(c2ccccn2)CC1.[Na+]
MLD (in column LD50 mice) (mice): > 1125 mg/kg | inhibition in vivo at 200 mg/kg [1, 2]: 22.1% | Necrotic area (mean ± S.E. %) [1, 3]: 11.6 ± 0.7%

CCOC(=O)C1OC1C(=O)N[C@@H](CC(C)C)C(=O)N1CCN(Cc2ccc(OC)c(OC)c2OC)CC1 (stereo partly drawn) [Compound 10, Ethyl trans-3-[(s)-3-methyl-1-{4-(2,3,4-trimethoxyphenylmethyl)piperazine-1-ylcarbonyl}butylcarbamoyl]oxirane-2-carboxylate 1/2 sulfate]
inhibition in vivo at 40 mg/kg [1, 6]: 25.5% | Necrotic area (mean ± S.E. %) [1, 7]: 10.5 ± 1.1%

CC(C)C[C@H](NC(=O)[C@H]1O[C@@H]1C(=O)[O-])C(=O)N1CCN(c2ncccn2)CC1.[Na+]
MLD (in column LD50 mice) (mice): > 1125 mg/kg | inhibition in vivo at 200 mg/kg [1, 4]: 26% | Necrotic area (mean ± S.E. %) [1, 5]: 10.7 ± 0.4%
